Results from PubChem BioAssay AID200 (DTP/NCI, 2004).
Values joined by “and” are separate entries in the source; they are usually repeats but may differ in a detail not shown here. Identical values can stand only once. Inconclusive results and toxic doses are left out. The calls were made as follows: active = survival T/C of 150% or more; inactive = T/C below 125% in these data.

System: B6C3F1 mice, B16 melanoma ip, median survival T/C
Test: NCI In Vivo Anticancer Drug Screen. Data for tumor model B16 Melanoma (intraperitoneal) in B6C3F1 mice
Details: endpoint: median survival time, higher = longer survival
Procedure, shortened: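 Transplantable tumor in mice; treated vs vehicle control groups; survival or tumor size measured; value = T/C ratio.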

[1] = dose: 3.12 mg/kg/injection, schedule: Q01DX009 (ip), vehicle: saline
[2] = dose: 6.25 mg/kg/injection, schedule: Q01DX009 (ip), vehicle: saline
[3] = dose: 12.5 mg/kg/injection, schedule: Q01DX009 (ip), vehicle: saline
[4] = dose: 25.0 mg/kg/injection, schedule: Q01DX009 (ip), vehicle: saline
[5] = dose: 50.0 mg/kg/injection, schedule: Q01DX009 (ip), vehicle: saline
[6] = dose: 100.0 mg/kg/injection, schedule: Q01DX009 (ip), vehicle: saline
[7] = dose: 6.25 mg/kg/injection, schedule: Q01DX009 (ip), vehicle: saline with Tween-80
[8] = dose: 12.5 mg/kg/injection, schedule: Q01DX009 (ip), vehicle: saline with Tween-80
[9] = dose: 25.0 mg/kg/injection, schedule: Q01DX009 (ip), vehicle: saline with Tween-80
[10] = dose: 50.0 mg/kg/injection, schedule: Q01DX009 (ip), vehicle: saline with Tween-80
[11] = dose: 100.0 mg/kg/injection, schedule: Q01DX009 (ip), vehicle: saline with Tween-80
[12] = dose: 200.0 mg/kg/injection, schedule: Q01DX009 (ip), vehicle: saline with Tween-80
[13] = dose: 200.0 mg/kg/injection, schedule: Q01DX009 (ip), vehicle: saline

Measured: T/C

CC(=O)c1ccc([NH-])c([NH-])c1.[Cl][Pt+2][Cl]
inactive: dose: 2.5 mg/kg/injection, schedule: Q01DX009 (ip), vehicle: distilled water + Tween-80 116 % of control | dose: 5.0 mg/kg/injection, schedule: Q01DX009 (ip), vehicle: distilled water + Tween-80 116 % of control | dose: 10.0 mg/kg/injection, schedule: Q01DX009 (ip), vehicle: distilled water + Tween-80 114 % of control and 124 % of control | dose: 20.0 mg/kg/injection, schedule: Q01DX009 (ip), vehicle: distilled water + Tween-80 114 % of control | dose: 40.0 mg/kg/injection, schedule: Q01DX009 (ip), vehicle: distilled water + Tween-80 119 % of control

CC(=O)OCC1OC(n2cc(CBr)nn2)C(OC(C)=O)C(OC(C)=O)C1OC(C)=O (centres undefined)
inactive: [1] 100 % of control | [2] 103 % of control | [3] 102 % of control | [4] 113 % of control and 114 % of control | [5] 117 % of control and 119 % of control | [6] 105 % of control

Cc1c2c(ccc3ccccc32)c[n+]2ccccc12
inactive: dose: 1.56 mg/kg/injection, schedule: Q01DX009 (ip), vehicle: saline 89 % of control | [1] 103 % of control | [2] 105 % of control | [3] 108 % of control | [4] 108 % of control

O=[N+]([O-])c1ccc(N(CCO)CCO)c2c1no[n+]2[O-]
inactive: [7] 102 % of control | [8] 114 % of control | [9] 102 % of control

NCCCNCCSP(=O)(O)O
inactive: [8] 108 % of control | [3] 104 % of control and 106 % of control | [9] 97 % of control | [4] 115 % of control and 97 % of control | [10] 105 % of control | [5] 109 % of control and 111 % of control | [11] 108 % of control | [6] 109 % of control and 115 % of control | [12] 104 % of control | [13] 121 % of control and 124 % of control

CCCCCCCCCCCCCCCCNc1cccc2ccccc12
inactive: [8] 96 % of control | [9] 95 % of control | [10] 94 % of control and 97 % of control | [11] 92 % of control

N#CCS(=O)(=O)c1cccc[n+]1[O-]
inactive: [9] 102 % of control | [10] 101 % of control | [11] 117 % of control | [12] 121 % of control

[Cl][Pt+2][Cl].[NH-]c1ccc([N+](=O)[O-])cc1[NH-]
inactive: dose: 10.0 mg/kg/injection, schedule: Q01DX009 (ip), vehicle: saline with Tween-80 107 % of control | dose: 20.0 mg/kg/injection, schedule: Q01DX009 (ip), vehicle: saline with Tween-80 105 % of control | dose: 40.0 mg/kg/injection, schedule: Q01DX009 (ip), vehicle: saline with Tween-80 118 % of control | dose: 80.0 mg/kg/injection, schedule: Q01DX009 (ip), vehicle: saline with Tween-80 116 % of control

CC(C)C(NC(=O)C(F)(F)F)C(=O)O (centres undefined)
inactive: [5] 96 % of control | [6] 89 % of control

COc1ccc(-c2cc(=O)c3ccc4c(O)cccc4c3o2)cc1
inactive: dose: 3.12 mg/kg/injection, schedule: Q01DX009 (ip), vehicle: saline with Tween-80 97 % of control | [7] 88 % of control | [9] 86 % of control | [10] 93 % of control

COC(CCC(C)C1OC23CC(OC(=O)CC(C(C)O)OC(=O)CC(O)(O2)C(C)CC3(C)C)C1C)c1cccc(O)c1 (centres undefined)
inactive: dose: 12.5 micrograms/kg/injection, schedule: Q01DX009 (ip), vehicle: saline + Tween-80 + alcohol 96 % of control | dose: 25.0 micrograms/kg/injection, schedule: Q01DX009 (ip), vehicle: saline + Tween-80 + alcohol 97 % of control | dose: 50.0 micrograms/kg/injection, schedule: Q01DX009 (ip), vehicle: saline + Tween-80 + alcohol 104 % of control | dose: 100.0 micrograms/kg/injection, schedule: Q01DX009 (ip), vehicle: saline + Tween-80 + alcohol 102 % of control

NC(=O)Oc1cccc(OC(N)=O)c1
inactive: dose: 12.5 mg/kg/injection, schedule: Q01DX009 (ip), vehicle: distilled water + Tween-80 108 % of control | dose: 25.0 mg/kg/injection, schedule: Q01DX009 (ip), vehicle: distilled water + Tween-80 107 % of control | dose: 50.0 mg/kg/injection, schedule: Q01DX009 (ip), vehicle: distilled water + Tween-80 99 % of control | dose: 100.0 mg/kg/injection, schedule: Q01DX009 (ip), vehicle: distilled water + Tween-80 96 % of control | dose: 200.0 mg/kg/injection, schedule: Q01DX009 (ip), vehicle: distilled water + Tween-80 113 % of control | dose: 400.0 mg/kg/injection, schedule: Q01DX009 (ip), vehicle: distilled water + Tween-80 105 % of control

CC(Oc1ccccc1-c1ccccc1)C(=O)N(C)C (centres undefined)
inactive: [8] 95 % of control | [9] 100 % of control | [10] 95 % of control | [11] 98 % of control | [12] 106 % of control | dose: 400.0 mg/kg/injection, schedule: Q01DX009 (ip), vehicle: saline with Tween-80 100 % of control

CC(O)C(NC(=O)OC(C)(C)C)C(=O)O (centres undefined)
inactive: [4] 86 % of control and 100 % of control | [5] 108 % of control and 106 % of control | [6] 108 % of control and 100 % of control | [13] 95 % of control

COC(=O)C(N)Cc1ccc(O)c(O)c1 (centres undefined)
inactive: [3] 102 % of control | [4] 88 % of control and 102 % of control | dose: 25.0 mg/kg/injection, schedule: Q01DX012 (ip), vehicle: saline 95 % of control | dose: 25.0 mg/kg/injection, schedule: Q01DX024 (ip), vehicle: saline 95 % of control | dose: 25.0 mg/kg/injection, schedule: Q08HX120 (ip), vehicle: saline 112 % of control | [5] 90 % of control and 100 % of control | dose: 50.0 mg/kg/injection, schedule: Q01DX012 (ip), vehicle: saline 94 % of control | dose: 50.0 mg/kg/injection, schedule: Q01DX024 (ip), vehicle: saline 97 % of control | [6] 94 % of control and 98 % of control and 106 % of control | dose: 100.0 mg/kg/injection, schedule: Q01DX012 (ip), vehicle: saline 94 % of control and 101 % of control | dose: 100.0 mg/kg/injection, schedule: Q01DX024 (ip), vehicle: saline 91 % of control and 99 % of control | dose: 100.0 mg/kg/injection, schedule: Q08HX120 (ip), vehicle: saline 109 % of control | dose: 100.0 mg/kg/injection, schedule: Q#A X040 (ip), vehicle: saline 91 % of control | [13] 111 % of control and 103 % of control and 106 % of control | dose: 200.0 mg/kg/injection, schedule: Q01DX012 (ip), vehicle: saline 96 % of control and 105 % of control | dose: 200.0 mg/kg/injection, schedule: Q01DX024 (ip), vehicle: saline 97 % of control and 106 % of control | dose: 200.0 mg/kg/injection, schedule: Q08HX120 (ip), vehicle: saline 110 % of control | dose: 200.0 mg/kg/injection, schedule: Q#A X040 (ip), vehicle: saline 100 % of control | dose: 400.0 mg/kg/injection, schedule: Q01DX009 (ip), vehicle: saline 117 % of control and 100 % of control and 105 % of control | dose: 400.0 mg/kg/injection, schedule: Q01DX012 (ip), vehicle: saline 117 % of control and 102 % of control | dose: 400.0 mg/kg/injection, schedule: Q01DX024 (ip), vehicle: saline 108 % of control and 104 % of control | dose: 400.0 mg/kg/injection, schedule: Q#A X040 (ip), vehicle: saline 95 % of control | dose: 600.0 mg/kg/injection, schedule: Q#A X040 (ip), vehicle: saline 95 % of control | dose: 800.0 mg/kg/injection, schedule: Q01DX009 (ip), vehicle: saline 117 % of control | dose: 800.0 mg/kg/injection, schedule: Q01DX012 (ip), vehicle: saline 116 % of control

COC1C(CO)OC(n2cnc3c(=S)nc(N)[nH]c32)C1O (centres undefined)
inactive: dose: 50.0 mg/kg/injection, schedule: Q01DX009 (ip), vehicle: Klucel (hydroxypropylcellulose) (HPC) 116 % of control | dose: 100.0 mg/kg/injection, schedule: Q01DX009 (ip), vehicle: Klucel (hydroxypropylcellulose) (HPC) 114 % of control

C[N+](C)=C1C=CC(=C2C=CSC=C2)C=C1
inactive: dose: 3.0 mg/kg/injection, schedule: Q01DX009 (ip), vehicle: saline 115 % of control | [2] 116 % of control

C=CC(C)(C)n1cc(C2=C(O)C(=O)C(c3cn(C(C)(C)C=C)c4ccccc34)=C(O)C2=O)c2ccccc21
inactive: dose: 2.5 micrograms/kg/injection, schedule: Q01DX009 (ip), vehicle: DMSO 87 % of control | dose: 5.0 micrograms/kg/injection, schedule: Q01DX009 (ip), vehicle: DMSO 91 % of control | dose: 10.0 micrograms/kg/injection, schedule: Q01DX009 (ip), vehicle: DMSO 86 % of control | dose: 20.0 micrograms/kg/injection, schedule: Q01DX009 (ip), vehicle: DMSO 87 % of control

C=C(C)/C([O-])=N/[N+](C)(C)CC(O)CCCCCCCCCCCC (centres undefined)
inactive: dose: 25.0 mg/kg/injection, schedule: Q01DX001 (ip), vehicle: saline 109 % of control | dose: 50.0 mg/kg/injection, schedule: Q01DX001 (ip), vehicle: saline 114 % of control and 116 % of control | dose: 100.0 mg/kg/injection, schedule: Q01DX001 (ip), vehicle: saline 114 % of control and 90 % of control | dose: 200.0 mg/kg/injection, schedule: Q01DX001 (ip), vehicle: saline 86 % of control
